Laboratory results reported in patent US20260216103A1, “USE OF LONG-ACTING ß2AR AGONIST IN PREPARATION OF DRUGS FOR TREATING CANCERS” (HONG KONG SXMETEROL PHARMACEUTICAL CO., LIMITED, priority 2023, published 2026).

Assays:
[1] = tested on: pancreatic cancer cells CFPAC-1, PANC-1; assay: tumor sphere formation assay of pancreatic cancer cells; format: cell-based; details: 1 μM, 3 μM, or 10 μM, 7 d; FIG. 24
Excerpt: (§1) As a gold standard for detecting the self-renewal capability of cancer stem cells in vitro, a tumor sphere formation assay may detect individual cancer stem cell that continuously self-renew in a conditioned medium and form tumor spheres consisting of multiple cells. This in vitro experiment is often used to test the responsiveness of clinical patients to anticancer drugs, and guide in vivo medication of the clinical patients.

[2] = tested on: esophageal cancer cells KYSE-150; assay: tumor sphere formation assay of esophageal cancer cells; format: cell-based; details: 10 μM, 7 d; FIG. 15; P<0.05
Excerpt: as §1
According to culture conditions in Table 5, esophageal cancer cells KYSE-150 were subjected to a tumor sphere formation assay, and treated with salmeterol xinafoate (SX) at a concentration of 10 μM.

[3] = tested on: prostate cancer cells PC-3, DU145, RM-1; assay: tumor sphere formation assay of prostate cancer cells; format: cell-based; details: 1 μM, 3 μM, or 10 μM, 7 d; FIG. 19
Excerpt: as §1

[4] = tested on: CAL-27 head and neck cancer cells; assay: subcutaneous tumorigenesis experiment with SX-pretreated head and neck cancer cells; format: in vivo, mice; details: cells treated with 10 μM SX for 3 d, 1×10^6/mouse; FIG. 7; P<0.0001 vs control
Method: (§2) Experimental method and steps: Cancer cells were treated with salmeterol xinafoate (SX) in vitro for 3-7 d, and a subcutaneous or orthotopic tumorigenesis experiment was conducted on mice.
CAL-27 head and neck cancer cells were treated with 10 μM salmeterol xinafoate (SX) for 3 d, and cells (1×10^6/mouse) were subcutaneously injected on both sides of the back of mice in a control group and an SX treated group (3 mice/group) to conduct a tumorigenesis experiment.
Experimental results in FIG. 7 show cancer growth curves.

[5] = tested on: kidney cancer cells G-401, 786-O; assay: tumor sphere formation assay of kidney cancer cells; format: cell-based; details: 1 μM, 3 μM, or 10 μM, 7 d; FIG. 22
Excerpt: as §1

[6] = tested on: CT-26 colorectal cancer cells; assay: subcutaneous tumorigenesis experiment with SX-pretreated colorectal cancer cells; format: in vivo, mice; details: cells treated with 10 μM SX for 7 d
Method: as §2
CT-26 colorectal cancer cells were treated with 10 μM salmeterol xinafoate (SX) for 7 d, and cells (1×10^5/mouse) were subcutaneously injected on both sides of the back of mice in a control group and an SX treated group (5 mice/group) to conduct a tumorigenesis experiment. 10 cancers formed subcutaneously at 10 injection sites of 5 mice in the control group, and 8 cancers formed subcutaneously at 10 injection sites of 5 mice in the SX treated group.
Experimental results in FIG. 5 show cancer growth curves and representative cancer photos.

[7] = tested on: lung cancer cells LLC, H1299, H460, H446; assay: tumor sphere formation assay of lung cancer cells; format: cell-based; details: 1 μM, 3 μM, or 10 μM, 7 d; FIG. 13
Excerpt: as §1

[8] = tested on: ovarian cancer cells SKOV3; assay: tumor sphere formation assay of ovarian cancer cells; format: cell-based; details: 1 μM, 3 μM, or 10 μM, 7 d; FIG. 21
Excerpt: as §1

[9] = tested on: liver cancer cells Hep G2; assay: tumor sphere formation assay of liver cancer cells; format: cell-based; details: 1 μM, 3 μM, or 10 μM, 7 d; FIG. 20
Excerpt: as §1

[10] = tested on: colorectal cancer cells CT-26, SW620, HCT-15, DLD-1; assay: tumor sphere formation assay of colorectal cancer cells; format: cell-based; details: 1 μM, 3 μM, or 10 μM, 7 d; FIG. 12
Excerpt: as §1

[11] = tested on: breast cancer cells MDA-MB-231, 4T1, 168FARN, 67NR, 4TO7; assay: tumor sphere formation assay of breast cancer cells; format: cell-based; details: 1 μM, 3 μM, or 10 μM, 7 d; FIG. 11
Excerpt: as §1
Experimental results in FIG. 11 show the number of tumor spheres from at least 3 independent experiments and representative tumor sphere photos.

Compound: OCc1cc(C(O)CNCCCCCCOCCCCc2ccccc2)ccc1O (stereo not drawn) [salmeterol xinafoate]
- number of tumor spheres (self-renewal capability of cancer stem cells) [1]: inhibited the self-renewal capability of the pancreatic cancer stem cells in a concentration dependent manner
- number of tumor spheres (self-renewal capability of cancer stem cells) [2]: inhibited the self-renewal capability of the esophageal cancer stem cells
- number of tumor spheres (self-renewal capability of cancer stem cells) [3]: inhibited the self-renewal capability of the prostate cancer stem cells in a concentration dependent manner
- cancer growth curves (initiation and progression) [4]: inhibits the initiation and progression of subcutaneous head and neck cancer
- number of tumor spheres (self-renewal capability of cancer stem cells) [5]: inhibited the self-renewal capability of the kidney cancer stem cells in a concentration dependent manner
- cancers formed subcutaneously at injection sites ([6]; 1×10^5/mouse, 10 injection sites of 5 mice, control group 10): 8
- cancer growth curves (initiation and progression) ([6]; FIG. 5, P<0.0001 vs control): inhibits the initiation and progression of subcutaneous colorectal cancer
- number of tumor spheres (self-renewal capability of cancer stem cells) [7]: inhibited the self-renewal capability of the lung cancer stem cells in a concentration dependent manner
- number of tumor spheres (self-renewal capability of cancer stem cells) [8]: inhibited the self-renewal capability of the ovarian cancer stem cells in a concentration dependent manner
- number of tumor spheres (self-renewal capability of cancer stem cells) [9]: inhibited the self-renewal capability of the liver cancer stem cells in a concentration dependent manner
- number of tumor spheres (self-renewal capability of cancer stem cells) [10]: inhibited the self-renewal capability of the colorectal cancer stem cells in a concentration dependent manner
- number of tumor spheres (self-renewal capability of cancer stem cells) [11]: inhibited the self-renewal capability of the breast cancer stem cells in a concentration dependent manner
